For 39 compounds, cytotoxicity and Inhibition results are on record in ChEMBL document CHEMBL3507680, “University of Dundee, Gates Library screen for HepG2 cell viability”.

SMILES strings stand for the structures. Values joined by “and” are separate entries in the source; they are usually repeats but may differ in a detail not shown here. Equal values may be shown once.

A short description of one data set: Human HepG2 cell viability assay in 384 well format. As to conditions: HepG2 cells, read-out: Inhibition. It is filed as toxicity, cell-based. More on the design: dose 125 nL, time 70.5 hour; cytotoxicity at 70.5 h: concentration not given beside the values.
Turning to `CC(C)c1noc(CN(Cc2cccnc2)C2CN3CCC2CC3)n1` (centres undefined), the cytotoxicity at 70.5 h is 52.5%. Regarding `O=C(NCc1c(F)cccc1F)C1CN(C(=O)c2cnccn2)C1`, the cytotoxicity at 70.5 h is -6.6%.

For `CC(CCS(C)(=O)=O)NC(=O)NCc1ccc2c(c1)CCC2` (centres undefined), the cytotoxicity at 70.5 h was -6.48%. For `CC(=O)c1cn(CCC(=O)N[C@H](C(=O)O)C(C)C)c2ccccc12`, the cytotoxicity at 70.5 h is -4%.

Consider `CS(=O)(=O)N1CCCC1c1cccc(Cc2ccccc2F)n1` (centres undefined), for which the cytotoxicity at 70.5 h was -6.97%. As to `O=C1C(NCc2ccccc2O)CCN1Cc1ccccc1` (centres undefined), the cytotoxicity at 70.5 h was 18.3%. On the same count and under the same terms, next, `CCOC(C)c1noc(CN2CCN(c3nnc(C)s3)CC2)n1` (centres undefined): -4.45%; `CN1C[C@@H](F)[C@@H](OCc2nc3ccc(C#N)cc3[nH]2)C1`: -2.32%. Same read-out and setting: to `CCC1CN(c2cnn(C)c(=O)c2Br)CCO1` (centres undefined) belongs -1.58%. Turning to `FC(F)(F)c1cc(C2CCNCC2)nc(-c2ccsc2)n1`, the cytotoxicity at 70.5 h was -11.8%. For the compound `c1cnc(-c2cnc(N3CCSCC3)nc2C2CCCO2)cn1` (centres undefined), the cytotoxicity at 70.5 h was -16.8%. On to `Cc1cccc2ncn(C(C)Cn3cccn3)c(=O)c12` (centres undefined), for which the cytotoxicity at 70.5 h is -10.4%. As to `NCC1Cc2cc(-c3cnccn3)cc(Cl)c2O1` (centres undefined), the cytotoxicity at 70.5 h is 0.342%. As for `Cc1cnn(CC2CCCCN2CCC(=O)Nc2cc(C)on2)c1` (centres undefined), the cytotoxicity at 70.5 h amounted to 4.06%. Take `CN(C)C(=O)CNC(=O)c1ccn(-c2ccc3ccccn23)n1`: the cytotoxicity at 70.5 h is -8.61%. In the case of `Cc1ccc(-c2ccnc(NC(C)c3n[nH]c(=O)[nH]3)n2)c(C)n1` (centres undefined), the cytotoxicity at 70.5 h was -12.8%.

On to `CN1CCC(c2cncc(C(=O)NCc3ccc(F)cc3)n2)CC1`, for which the cytotoxicity at 70.5 h was -5.99%. As for `CN(CC1(O)CCN(c2ccccn2)C1)C(=O)Cc1ccsc1` (centres undefined), the cytotoxicity at 70.5 h is -6.86%. As for `NC(=O)CN1CCC(C(=O)N2CCCC(OCc3cccnc3)C2)CC1` (centres undefined), the cytotoxicity at 70.5 h was -11%. For `CNc1ncc(C(=O)N2CCC(c3ccccc3C(=O)O)C2)cn1` (centres undefined), the cytotoxicity at 70.5 h is -5.85%. With `CCC1=N[C@@]2(CC[C@@H]3CN(Cc4ccc(F)cc4)C[C@@H]32)C(=O)N1C`, the cytotoxicity at 70.5 h is 0.293%. Take `CSc1cc2c(cc1NC(=O)NCC(C)(C)C(N)=O)OCCO2`: the cytotoxicity at 70.5 h is -1.42%. Regarding `Cc1cnc(NCCCN2CCCCC2CO)nc1` (centres undefined), the cytotoxicity at 70.5 h was -1.85%. With `Cn1cc(C2CCCN2C(=O)COCCOc2ccccc2)cn1` (centres undefined), the cytotoxicity at 70.5 h was -4.67%. Consider `Cc1cccc(CNC(=O)CC2CCN(C(=O)C(C)C)CC2)n1`, for which the cytotoxicity at 70.5 h came out at 6.37%. As for `CC(Cn1cccn1)NCCS(=O)(=O)c1ccccc1` (centres undefined), the cytotoxicity at 70.5 h was -8.75%. In the case of `Cc1ccoc1C(=O)N1C[C@@H](OCC2CC2)[C@H]2OCCC[C@H]21`, the cytotoxicity at 70.5 h is -1.01%. Take `CS(=O)(=O)CCNC(=O)c1ccc(-c2ccco2)[nH]c1=O`: the cytotoxicity at 70.5 h is 1.54%. Regarding `CCn1ncc(CN2C[C@@H]3CCCN3C[C@H]2CCSC)c1C`, the cytotoxicity at 70.5 h was determined as 1.32%.

For `Cc1cc(C(=O)N2CCC(n3cc(CO)nn3)CC2)ccc1F`, the cytotoxicity at 70.5 h was -5.39%. Regarding `CC(NCC1CCN(CCO)CC1)c1cccnc1` (centres undefined), the cytotoxicity at 70.5 h is 28.1%. For the compound `C[C@@H]1C[C@H](C(F)(F)F)n2nc(C3CCN(C(=O)C(C)(C)C)CC3)cc2N1`, the cytotoxicity at 70.5 h is -6.86%. Same read-out and setting: to `CN(C(=O)CC1=CCCCC1)C1CCCN(C2Cc3ccccc3C2)C1` (centres undefined) belongs -0.808%. The same measure, in the same setting: next, `CC(C)(C)C(=O)N1C[C@@H](F)[C@@H](OCc2nc3ncccc3[nH]2)C1`: -2.41%; `Cc1cc(C2CCCN2Cc2nnc(-c3ccco3)o2)on1` (centres undefined): -8.06%. On to `CC1CCCCN1S(=O)(=O)NCc1cccnc1OC1CCCC1` (centres undefined), for which the cytotoxicity at 70.5 h is -2.43%. `Cc1cc(C2CCCN(Cc3noc(Cc4ccccc4)n3)C2)n[nH]1` (centres undefined): the cytotoxicity at 70.5 h is -1%. Consider `CC1(C)OCC(CNC(=O)c2cnn(-c3cc(Cl)ccc3Cl)c2N)O1` (centres undefined), for which the cytotoxicity at 70.5 h was -5.2%.

The same data set, now with this note: hepg2, 70.5 h, 70.5 h.
For the compound `CC1=Nc2c(c(=O)[nH]n2C2CCCCC2)C(c2ccc(C(=O)O)cc2)S1` (centres undefined), the Inhibition is -14.53% and -17.54%.
